# pIC50: −log10 of the molar value. Where a name gives a salt, the structure may show the parent alone.
# Biological target: BACE1 (Homo sapiens (Human), UniProt P56817)
# Experiment: BACE1 Cell-Free Assay (fluorescence polarization)
# Type: biochemical
# Conditions: geometric mean of 2-4 determinations unless otherwise indicated (b: ≧5; c: single determination); read-out: BACE1 Cell-free Assay IC50
# Text: This assay measures the inhibition of the beta-secretase enzyme as it cleaves a non-native peptide.
# A synthetic APP substrate that can be cleaved by beta-secretase having N-terminal biotin and made fluorescent by the covalent attachment of Oregon Green at the Cys residue is used to assay beta-secretase activity in the presence or absence of the inhibitory compounds. […] The BACE1 enzyme is affinity purified material from conditioned media of CHO-K1 cells that have been transfected with a soluble BACE construct (BACE1deltaTM96His). […] Plates are covered and incubated for 3 hours at 37° C. […] The activity of the beta-secretase enzyme is detected by changes in the fluorescence polarization that occur when the substrate is cleaved by the enzyme.
# Sequence of BACE1 (P56817 46-457): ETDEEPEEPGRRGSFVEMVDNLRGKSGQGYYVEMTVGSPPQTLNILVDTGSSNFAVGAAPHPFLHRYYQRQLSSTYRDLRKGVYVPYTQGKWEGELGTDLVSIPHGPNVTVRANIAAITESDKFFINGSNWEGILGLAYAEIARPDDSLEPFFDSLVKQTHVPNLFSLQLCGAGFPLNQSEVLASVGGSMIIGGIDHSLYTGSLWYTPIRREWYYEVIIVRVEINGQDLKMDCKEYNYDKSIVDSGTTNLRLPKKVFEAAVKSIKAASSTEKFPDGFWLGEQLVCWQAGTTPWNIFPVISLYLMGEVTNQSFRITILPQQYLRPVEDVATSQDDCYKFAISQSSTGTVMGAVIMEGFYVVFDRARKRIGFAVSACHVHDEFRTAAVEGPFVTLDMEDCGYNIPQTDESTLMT
row,Compound,pIC50
1,"C[C@H]1C[C@H]2CSC(N)=N[C@@]2(c2nc(NC(=O)c3cc(C(F)(F)F)on3)cs2)CO1 [Example 32, N-{2-[(4aR,6S,8aR)-2-amino-6-methyl-4,4a,5,6-tetrahydropyrano[3,4-d][1,3]thiazin-8a(8H)-yl]-1,3-thiazol-4-yl}-5-(trifluoromethyl)-1,2-oxazole-3-carboxamide, trifluoroacetate salt]",5.85
2,"Cc1nc(C(=O)Nc2csc([C@]34CO[C@@H](C)C[C@H]3CSC(N)=N4)n2)c(C(F)(F)F)o1 [Example 38, N-{2-[(4aR,6S,8aR)-2-amino-6-methyl-4,4a,5,6-tetrahydropyrano[3,4-d][1,3]thiazin-8a(8H)-yl]-1,3-thiazol-4-yl}-2-methyl-5-(trifluoromethyl)-1,3-oxazole-4-carboxamide, trifluoroacetate salt]",6.84
3,"Cc1cc(C(=O)Nc2csc([C@]34CO[C@@H](C)C[C@H]3CSC(N)=N4)n2)n(C)n1 [Example 41, N-{2-[(4aR,6S,8aR)-2-amino-6-methyl-4,4a,5,6-tetrahydropyrano[3,4-d][1,3]thiazin-8a(8H)-yl]-1,3-thiazol-4-yl}-1,3-dimethyl-1H-pyrazole-5-carboxamide, trifluoroacetate salt]",6.44
4,"C[C@H]1C[C@H]2CSC(N)=N[C@@]2(c2nc(NC(=O)c3ccc(OC(C)(F)F)cn3)cs2)CO1 [Example 44, N-{2-[(4aR,6S,8aR)-2-amino-6-methyl-4,4a,5,6-tetrahydropyrano[3,4-d][1,3]thiazin-8a(8H)-yl]-1,3-thiazol-4-yl}-5-(1,1-difluoroethoxy)pyridine-2-carboxamide]",6.73
5,"COc1cnc(C(=O)Nc2csc([C@]34CO[C@@H](C)C[C@H]3CSC(N)=N4)n2)c(C)c1 [Example 47, N-{2-[(4aR,6S,8aR)-2-amino-6-methyl-4,4a,5,6-tetrahydropyrano[3,4-d][1,3]thiazin-8a(8H)-yl]-1,3-thiazol-4-yl}-5-methoxy-3-methylpyridine-2-carboxamide]",7.00
6,"C[C@H]1C[C@H]2CSC(N)=N[C@@]2(c2nc(NC(=O)c3coc(C(F)(F)F)n3)cs2)CO1 [Example 50, N-{2-[(4aR,6S,8aR)-2-amino-6-methyl-4,4a,5,6-tetrahydropyrano[3,4-d][1,3]thiazin-8a(8H)-yl]-1,3-thiazol-4-yl}-2-(trifluoromethyl)-1,3-oxazole-4-carboxamide]",6.72
7,"C[C@H]1C[C@H]2CSC(N)=N[C@@]2(c2nc(NC(=O)c3cnc(OCC4CC4)cn3)cs2)CO1 [Example 54, N-{2-[(4aR,6S,8aR)-2-amino-6-methyl-4,4a,5,6-tetrahydropyrano[3,4-d][1,3]thiazin-8a(8H)-yl]-1,3-thiazol-4-yl}-5-(cyclopropylmethoxy)pyrazine-2-carboxamide]",6.79
8,"C[C@@H](F)COc1cnc(C(=O)Nc2csc([C@]34CO[C@@H](C)C[C@H]3CSC(N)=N4)n2)cn1 [Example 56, N-{2-[(4aR,6S,8aR)-2-amino-6-methyl-4,4a,5,6-tetrahydropyrano[3,4-d][1,3]thiazin-8a(8H)-yl]-1,3-thiazol-4-yl}-5-{[(2R)-2-fluoropropyl]oxy}pyrazine-2-carboxamide]",6.44

# More lines, now with the values ahead:
row,pIC50,Compound
1,4.47,"C[C@H]1C[C@H]2CSC(N)=N[C@@]2(c2nc(NC(=O)c3cn(C4CCC4)cn3)cs2)CO1 [Example 33, N-{2-[(4aR,6S,8aR)-2-amino-6-methyl-4,4a,5,6-tetrahydropyrano[3,4-d][1,3]thiazin-8a(8H)-yl]-1,3-thiazol-4-yl}-1-cyclobutyl-1H-imidazole-4-carboxamide]"
2,5.23,"COCc1cc(C(=O)Nc2csc([C@]34CO[C@@H](C)C[C@H]3CSC(N)=N4)n2)no1 [Example 35, N-{2-[(4aR,6S,8aR)-2-amino-6-methyl-4,4a,5,6-tetrahydropyrano[3,4-d][1,3]thiazin-8a(8H)-yl]-1,3-thiazol-4-yl}-5-(methoxymethyl)-1,2-oxazole-3-carboxamide]"
3,5.83,"C[C@H]1C[C@H]2CSC(N)=N[C@@]2(c2nc(NC(=O)c3cc(C4CCC4)nn3C)cs2)CO1 [Example 34, N-{2-[(4aR,6S,8aR)-2-amino-6-methyl-4,4a,5,6-tetrahydropyrano[3,4-d][1,3]thiazin-8a(8H)-yl]-1,3-thiazol-4-yl}-3-cyclobutyl-1-methyl-1H-pyrazole-5-carboxamide]"
4,5.85,"C[C@H]1C[C@H]2CSC(N)=N[C@@]2(c2nc(NC(=O)c3ccc(=O)n(C)c3)cs2)CO1 [Example 36, N-{2-[(4aR,6S,8aR)-2-amino-6-methyl-4,4a,5,6-tetrahydropyrano[3,4-d][1,3]thiazin-8a(8H)-yl]-1,3-thiazol-4-yl}-1-methyl-6-oxo-1,6-dihydropyridine-3-carboxamide]"
5,6.28,"C[C@H]1C[C@H]2CSC(N)=N[C@@]2(c2nc(NC(=O)c3cnc(OC4CC4)cn3)cs2)CO1 [Example 55, N-{2-[(4aR,6S,8aR)-2-amino-6-methyl-4,4a,5,6-tetrahydropyrano[3,4-d][1,3]thiazin-8a(8H)-yl]-1,3-thiazol-4-yl}-5-(cyclopropyloxy)pyrazine-2-carboxamide]"
6,6.36,"C[C@H]1C[C@H]2CSC(N)=N[C@@]2(c2nc(NC(=O)c3ncn(C)n3)cs2)CO1 [Example 43, N-{2-[(4aR,6S,8aR)-2-amino-6-methyl-4,4a,5,6-tetrahydropyrano[3,4-d][1,3]thiazin-8a(8H)-yl]-1,3-thiazol-4-yl}-1-methyl-1H-1,2,4-triazole-3-carboxamide, trifluoroacetate salt]"
7,6.43,"C[C@H](F)COc1cnc(C(=O)Nc2csc([C@]34CO[C@@H](C)C[C@H]3CSC(N)=N4)n2)cn1 [Example 57, N-{2-[(4aR,6S,8aR)-2-amino-6-methyl-4,4a,5,6-tetrahydropyrano[3,4-d][1,3]thiazin-8a(8H)-yl]-1,3-thiazol-4-yl}-5-{[(2S)-2-fluoropropyl]oxy}pyrazine-2-carboxamide]"
8,6.47,"CCc1nc(C(=O)Nc2csc([C@]34CO[C@@H](C)C[C@H]3CSC(N)=N4)n2)co1 [Example 42, N-{2-[(4aR,6S,8aR)-2-amino-6-methyl-4,4a,5,6-tetrahydropyrano[3,4-d][1,3]thiazin-8a(8H)-yl]-1,3-thiazol-4-yl}-2-ethyl-1,3-oxazole-4-carboxamide, trifluoroacetate salt]"
9,6.49,"COc1cnc(C(=O)Nc2csc([C@]34CO[C@@H](C)C[C@H]3CSC(N)=N4)n2)c(C)n1 [Example 46, N-{2-[(4aR,6S,8aR)-2-amino-6-methyl-4,4a,5,6-tetrahydropyrano[3,4-d][1,3]thiazin-8a(8H)-yl]-1,3-thiazol-4-yl}-5-methoxy-3-methylpyrazine-2-carboxamide]"
10,6.63,"C[C@H]1C[C@H]2CSC(N)=N[C@@]2(c2nc(NC(=O)c3ccc(OC(F)F)nc3)cs2)CO1 [Example 48, N-{2-[(4aR,6S,8aR)-2-amino-6-methyl-4,4a,5,6-tetrahydropyrano[3,4-d][1,3]thiazin-8a(8H)-yl]-1,3-thiazol-4-yl}-6-(difluoromethoxy)pyridine-3-carboxamide]"
11,6.99,"Cc1nc(C(=O)Nc2csc([C@]34CO[C@@H](C)C[C@H]3CSC(N)=N4)n2)co1 [Example 49, N-{2-[(4aR,6S,8aR)-2-amino-6-methyl-4,4a,5,6-tetrahydropyrano[3,4-d][1,3]thiazin-8a(8H)-yl]-1,3-thiazol-4-yl}-2-methyl-1,3-oxazole-4-carboxamide]"
12,7.01,"Cc1noc(C(=O)Nc2csc([C@]34CO[C@@H](C)C[C@H]3CSC(N)=N4)n2)n1 [Example 51, N-{2-[(4aR,6S,8aR)-2-amino-6-methyl-4,4a,5,6-tetrahydropyrano[3,4-d][1,3]thiazin-8a(8H)-yl]-1,3-thiazol-4-yl}-3-methyl-1,2,4-oxadiazole-5-carboxamide]"
13,7.04,"Cc1nc(C(=O)Nc2csc([C@]34CO[C@@H](C)C[C@H]3CSC(N)=N4)n2)no1 [Example 52, N-{2-[(4aR,6S,8aR)-2-amino-6-methyl-4,4a,5,6-tetrahydropyrano[3,4-d][1,3]thiazin-8a(8H)-yl]-1,3-thiazol-4-yl}-5-methyl-1,2,4-oxadiazole-3-carboxamide]"
14,7.19,"Cc1nc(C(=O)Nc2csc([C@]34CO[C@@H](C)C[C@H]3CSC(N)=N4)n2)c(C)o1 [Example 53, N-{2-[(4aR,6S,8aR)-2-amino-6-methyl-4,4a,5,6-tetrahydropyrano[3,4-d][1,3]thiazin-8a(8H)-yl]-1,3-thiazol-4-yl}-2,5-dimethyl-1,3-oxazole-4-carboxamide]"

# Same assay, conditions: read-out: BACE1 Cell-free Assay IC50
row,Compound,pIC50
1,"C[C@H]1C[C@H]2CSC(N)=N[C@@]2(c2nc(NC(=O)c3ccc(OCC(F)F)cn3)cs2)CO1 [Example 37, N-{2-[(4aR,6S,8aR)-2-amino-6-methyl-4,4a,5,6-tetrahydropyrano[3,4-d][1,3]thiazin-8a(8H)-yl]-1,3-thiazol-4-yl}-5-(2,2-difluoroethoxy)pyridine-2-carboxamide, formate salt]",6.31
2,"CCc1cc(C(=O)Nc2csc([C@]34CO[C@@H](C)C[C@H]3CSC(N)=N4)n2)n(C)n1 [Example 39, N-{2-[(4aR,6S,8aR)-2-amino-6-methyl-4,4a,5,6-tetrahydropyrano[3,4-d][1,3]thiazin-8a(8H)-yl]-1,3-thiazol-4-yl}-3-ethyl-1-methyl-1H-pyrazole-5-carboxamide, trifluoroacetate salt]",6.43
3,"C[C@H]1C[C@H]2CSC(N)=N[C@@]2(c2nc(NC(=O)c3cnn(C)n3)cs2)CO1 [Example 40, N-{2-[(4aR,6S,8aR)-2-amino-6-methyl-4,4a,5,6-tetrahydropyrano[3,4-d][1,3]thiazin-8a(8H)-yl]-1,3-thiazol-4-yl}-2-methyl-2H-1,2,3-triazole-4-carboxamide, trifluoroacetate salt]",6.87

# Source: patent publication US9315520B2, “2-amino-6-methyl-4,4a,5,6-tetrahydropyrano[3,4-d][1,3]thiazin-8a(8H)-yl-1,3-thiazol-4-yl amides” (Pfizer Inc., priority 2014, dated 2016)
